# From US11712438B2, “Phenyl derivatives as PGE2 receptor modulators” (IDORSIA PHARMACEUTICALS LTD, priority 2017, dated 2023)
# Experiments:
# Assay in all cases: cell-based
# [1] = target: PTGER2 (EP2) (Homo sapiens, UniProt P43116)
# [2] = target: PTRGER4 (EP4) (Homo sapiens, UniProt P35408);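 also: assay plate preincubated 15 min at 37 °C, after which PGE2 was added at 20 nM final and incubation continued 120 min at 37 °C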
# [3] = target: EP2 (Homo sapiens, UniProt P43116);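 also: SF295 glioblastoma cells with endogenous EP2 only, PGE2-stimulated cAMP accumulation read by HTRF competitive immunoassay, 45 min pre-incubation then 30 min at room temperature, IBMX in buffer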
# Sequence of EP2 (P43116 whole entry): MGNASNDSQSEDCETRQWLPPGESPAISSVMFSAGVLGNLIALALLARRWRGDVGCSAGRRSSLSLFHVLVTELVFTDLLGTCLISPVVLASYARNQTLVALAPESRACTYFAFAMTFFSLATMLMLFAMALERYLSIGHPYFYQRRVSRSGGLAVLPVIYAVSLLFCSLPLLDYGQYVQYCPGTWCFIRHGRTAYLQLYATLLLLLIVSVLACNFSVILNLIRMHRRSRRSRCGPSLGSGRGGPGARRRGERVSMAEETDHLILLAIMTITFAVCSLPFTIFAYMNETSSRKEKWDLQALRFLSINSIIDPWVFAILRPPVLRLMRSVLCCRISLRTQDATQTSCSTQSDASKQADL
# [4] = target: EP4 (Homo sapiens, UniProt P35408);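 also: inhibition of PGE2-evoked (6 nM) cAMP accumulation in BT549 breast cancer cells endogenously expressing EP4, cAMP read by HTRF competitive immunoassay after 30 min at room temperature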
# Sequence of EP4 (P35408 whole entry): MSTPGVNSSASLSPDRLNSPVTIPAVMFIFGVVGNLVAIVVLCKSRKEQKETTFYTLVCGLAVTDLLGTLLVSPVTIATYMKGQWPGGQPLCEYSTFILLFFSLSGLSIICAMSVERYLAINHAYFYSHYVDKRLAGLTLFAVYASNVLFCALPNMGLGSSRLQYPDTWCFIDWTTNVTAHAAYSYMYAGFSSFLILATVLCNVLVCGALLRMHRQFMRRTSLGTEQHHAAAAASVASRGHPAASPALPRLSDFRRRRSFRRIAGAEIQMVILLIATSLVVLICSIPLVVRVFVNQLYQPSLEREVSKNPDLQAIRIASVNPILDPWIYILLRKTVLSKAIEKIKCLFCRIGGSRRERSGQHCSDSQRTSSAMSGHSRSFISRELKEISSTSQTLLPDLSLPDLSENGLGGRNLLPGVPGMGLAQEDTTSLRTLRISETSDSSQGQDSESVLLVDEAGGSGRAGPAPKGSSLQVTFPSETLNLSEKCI
# Text: Human tumor cell lines expressing endogenously either EP4 or EP2 are used and cAMP accumulation in cells upon PGE2 stimulation is monitored.
# As a detection method for cAMP the HTRF (homogeneous time resolved fluorescence) Cisbio kit (HTRF cAMP dynamic 2 kit 20′000 tests Cisbio Cat. #62AM4PEC) was used, which is based on a competitive immunoassay using a Cryptate-labeled anti-cAMP antibody and d2-labeled cAMP. Native cAMP produced by cells or unlabeled cAMP (for the standard curve) compete with exogenously added d2-labeled cAMP (acceptor) for binding to monoclonal anti-cAMP-Eu3+ Cryptate (donor). A FRET signal (Fluorescence Resonance Energy Transfer) is obtained only if the labeled anti-cAMP antibody binds the d2 labelled cAMP, thus the specific signal (i.e. energy transfer) is inversely proportional to the concentration of cAMP in the standard or sample.
# The BT549 cells (NCI/No. 0507282) are detached from culture dishes with a cell dissociation buffer (Invitrogen, 13151-014), and collected in growing medium (GM: RPM11640 (Invitrogen 21875)/10% FCS, 1% Penicilin/streptomycin). Cells are counted washed and resuspended in assay buffer (AB; HBSS, 20 mM HEPES, 0.2% BSA; 2 mM IBMX). 4′000 cells in 5 μl of AB are seeded per well of a small volume 384 well plate (black with flat bottom, Greiner 784076).
# Stock solutions of test compounds are made at a concentration of 10 mM in DMSO, and serially diluted in DMSO to concentrations required for inhibition dose response curves (tested concentration range 30 μM-0.4 nM; 30 μM-0.015 nM or 1 μM-0.01 nM).
# PGE2 (Cayman 14010, stock solution: 6 μM in DMSO) is used as agonist at 6 nM final concentration, corresponding to EC80.
# Two point five microliters of diluted compounds are transferred into the assay plate. Plate is pre-incubated 45 minutes at room temperature. Subsequently, 2.5 microliters of PGE2 (final conc. 6 nM) are transferred into the assay plate. Plate is incubated 30 minutes at room temperature.
# For each compound concentration the percentage of cAMP compared to DMSO control value as average±STDEV (each concentration is measured in duplicate) is calculated.
# When compounds were measured multiple times, mean values are given.
# Sequence of PTGER2 (EP2) (P43116 whole entry): as the sequence (P43116 whole entry) above
# Sequence of PTRGER4 (EP4) (P35408 whole entry): as the sequence (P35408 whole entry) above
Compound,IC50 [1] [nM],IC50 [2] [nM],IC50 [3] [nM],IC50 [4] [nM]
"CCOc1cc(-c2cc(NCCc3ccc(Br)cc3)ncn2)sc1-c1nnn[nH]1 [Example 131, [2-(4-Bromo-phenyl)-ethyl]-{6-[4-ethoxy-5-(1H-tetrazol-5-yl)-thiophen-2-yl]-pyrimidin-4-yl}-amine]",18,3,54,11
"O=c1[nH]c(-c2sc(-c3cc(NCCc4c(F)cc(Br)cc4F)ncn3)cc2C(F)(F)F)no1 [Example 133, 3-(5-{6-[2-(4-Bromo-2,6-difluoro-phenyl)-ethylamino]-pyrimidin-4-yl}-3-trifluoromethyl-thiophen-2-yl)-[1,2,4]oxadiazol-5(4H)-one]",13,13,92,44
"O=c1[nH]c(-c2ccc(-c3cc(NCCc4c(F)cc(Br)cc4F)ncn3)s2)no1 [Example 135, 3-(5-{6-[2-(4-Bromo-2,6-difluoro-phenyl)-ethylamino]-pyrimidin-4-yl}-thiophen-2-yl)-[1,2,4]oxadiazol-5(4H)-one]",26,8,15,34
"CCOc1cc(-c2cc(NCCc3ccc(Br)cc3)ncn2)sc1NC(N)=O [Example 146, (5-{6-[2-(4-Bromo-phenyl)-ethylamino]-pyrimidin-4-yl}-3-ethoxy-thiophen-2-yl)-urea]",39,14,249,189
"CCOc1nc(-c2cc(NCCc3c(F)cc(Br)cc3F)ncn2)sc1C(=O)O [Example 148, 2-{6-[2-(4-Bromo-2,6-difluoro-phenyl)-ethylamino]-pyrimidin-4-yl}-4-ethoxy-thiazole-5-carboxylic acid]",20,9,19,8
"CCc1nc(-c2cc(NCCc3c(F)cc(Br)cc3F)ncn2)sc1C(=O)O [Example 149, 2-{6-[2-(4-Bromo-2,6-difluoro-phenyl)-ethylamino]-pyrimidin-4-yl}-4-ethyl-thiazole-5-carboxylic acid]",199,43,67,73
"CCOc1nc(-c2cc(NCCc3c(F)cc(Br)cc3F)ncn2)sc1-c1noc(=O)[nH]1 [Example 150, 3-(2-{6-[2-(4-Bromo-2,6-difluoro-phenyl)-ethylamino]-pyrimidin-4-yl}-4-ethoxy-thiazol-5-yl)-[1,2,4]oxadiazol-5(4H)-one]",13,2,15,9
"CCc1nc(-c2cc(NCCc3c(F)cc(Br)cc3F)ncn2)sc1-c1noc(=O)[nH]1 [Example 151, 3-(2-{6-[2-(4-Bromo-2,6-difluoro-phenyl)-ethylamino]-pyrimidin-4-yl}-4-ethyl-thiazol-5-yl)-[1,2,4]oxadiazol-5(4H)-one]",69,3,43,29
"CCOc1cc(-c2cc(NCCc3c(F)cc(Br)cc3F)ncn2)sc1-c1nnc(O)o1 [Example 152, 5-(5-{6-[2-(4-bromo-2,6-difluoro-phenyl)-ethylamino]-pyrimidin-4-yl}-3-ethoxy-thiophen-2-yl)-[1,3,4]-oxadiazol-2-ol]",12,5,9,30
"CCOc1cc(-c2cc(NCCc3c(F)cc(Br)cc3F)ncn2)sc1C(=O)NS(C)(=O)=O [Example 154, N-(5-{6-[2-(4-Bromo-2,6-difluoro-phenyl)-ethylamino]-pyrimidin-4-yl}-3-ethoxy-thiophene-2-carbonyl)-methanesulfonamide]",13,33,8,66
"CCOc1cc(-c2cc(NCCc3c(F)cc(Br)cc3F)ncn2)sc1C(=O)NS(N)(=O)=O [Example 155, 5-(6-((4-Bromo-2,6-difluorophenethyl)amino)pyrimidin-4-yl)-3-ethoxy-N-sulfamoylthiophene-2-carboxamide]",12,35,20,62
"CCOc1cc(-c2cc(NCCc3c(F)cc(Br)cc3F)nc(C)n2)sc1-c1noc(=O)[nH]1 [Example 156, 3-(5-{6-[2-(4-Bromo-2,6-difluoro-phenyl)-ethylamino]-2-methyl-pyrimidin-4-yl}-3-ethoxy-thiophen-2-yl)-[1,2,4]oxadiazol-5(4H)-one]",9,31,28,16
"CCCCOc1cc(-c2cc(NCCc3c(F)cc(Br)cc3F)ncn2)cc(F)c1C(=O)O [Example 167, 4-{6-[2-(4-Bromo-2,6-difluoro-phenyl)-ethylamino]-pyrimidin-4-yl}-2-butoxy-6-fluoro-benzoic acid]",42,431,198,1080
"O=C(O)c1ccc2[nH]c(-c3cc(NCCc4c(F)cc(Br)cc4F)ncn3)cc2c1 [Example 168, 2-{6-[2-(4-Bromo-2,6-difluoro-phenyl)-ethylamino]-pyrimidin-4-yl}-1H-indole-5-carboxylic acid]",190,196,1690,2000
"O=C(O)c1ccc2cc(-c3cc(NCCc4c(F)cc(Br)cc4F)ncn3)[nH]c2c1 [Example 169, 2-{6-[2-(4-Bromo-2,6-difluoro-phenyl)-ethylamino]-pyrimidin-4-yl}-1H-indole-6-carboxylic acid]",21,457,74,1380
"COc1cc(-c2cc(NCCc3c(F)cc(Br)cc3F)ncn2)ccc1-c1cc(O)no1 [Example 174, 5-(4-{6-[2-(4-Bromo-2,6-difluoro-phenyl)-ethylamino]-pyrimidin-4-yl}-2-methoxy-phenyl)-isoxazol-3-ol]",36,108,265,94

# The next lines start with the values.
IC50 [1] [nM],IC50 [2] [nM],IC50 [3] [nM],IC50 [4] [nM],Compound
35,21,13,69,"CCOc1cc(-c2cc(NCCc3cc(Br)ccc3OC)ncn2)sc1-c1noc(=O)[nH]1 [Example 120, 3-(5-{6-[2-(5-Bromo-2-methoxy-phenyl)-ethylamino]-pyrimidin-4-yl}-3-ethoxy-thiophen-2yl)-[1,2,4]oxadiazol-5(4H)-one]"
66,9,60,42,"CCOc1cc(-c2cc(NCCc3ccc(Cl)c(Cl)c3)ncn2)sc1-c1noc(=O)[nH]1 [Example 121, 3-(5-{6-[2-(3,4-Dichloro-phenyl)-ethylamino]-pyrimidin-4-yl}-3-ethoxy-thiophen-2-yl)-[1,2,4]oxadiazol-5(4H)-one]"
29,27,32,19,"CCOc1cc(-c2cc(NCCc3ccc(Cl)cc3Cl)ncn2)sc1-c1noc(=O)[nH]1 [Example 123, 3-(5-{6-[2-(2,4-Dichloro-phenyl)-ethylamino]-pyrimidin-4-yl}-3-ethoxy-thiophen-2-yl)-[1,2,4]oxadiazol-5(4H)-one]"
11,3,49,5,"CCOc1cc(-c2cc(NCCc3ccc(Br)cc3F)ncn2)sc1-c1noc(=O)[nH]1 [Example 125, 3-(5-{6-[2-(4-Bromo-2-fluoro-phenyl)-ethylamino]-pyrimidin-4-yl}-3-ethoxy-thiophen-2-yl)-[1,2,4]oxadiazol-5(4H)-one]"
22,7,74,20,"CCOc1cc(-c2cc(NCCc3ccc(Br)cc3OC)ncn2)sc1-c1noc(=O)[nH]1 [Example 126, 3-(5-{6-[2-(4-Bromo-2-methoxy-phenyl)-ethylamino]-pyrimidin-4-yl}-3-ethoxy-thiophen-2yl)-[1,2,4]oxadiazol-5(4H)-one]"
29,14,129,47,"CCOc1cc(-c2cc(NCCc3ccc(Br)cc3C)ncn2)sc1-c1noc(=O)[nH]1 [Example 127, 3-(5-{6-[2-(4-Bromo-2-methyl-phenyl)-ethylamino]-pyrimidin-4-yl}-3-ethoxy-thiophen-2-yl)-[1,2,4]oxadiazol-5(4H)-one]"
22,4,63,24,"CCOc1cc(-c2cc(NCCc3ccc(Br)cc3)ncn2)sc1-c1noc(=O)[nH]1 [Example 130, 3-(5-{6-[2-(4-Bromo-phenyl)-ethylamino]-pyrimidin-4-yl}-3-ethoxy-thiophen-2-yl)-[1,2,4]oxadiazol-5(4H)-one]"
18,6,17,18,"Cc1cc(-c2cc(NCCc3c(F)cc(Br)cc3F)ncn2)sc1-c1noc(=O)[nH]1 [Example 136, 3-(5-{6-[2-(4-Bromo-2,6-difluoro-phenyl)-ethylamino]-pyrimidin-4-yl}-3-methyl-thiophen-2-yl)-[1,2,4]oxadiazol-5(4H)-one]"
34,130,123,247,"CCOc1cc(-c2cc(NCCc3c(F)cc(Br)cc3F)ncn2)sc1Cc1noc(=O)[nH]1 [Example 138, 3-(5-{6-[2-(4-Bromo-2,6-difluoro-phenyl)-ethylamino]-pyrimidin-4-yl}-3-ethoxy-thiophen-2-ylmethyl)-[1,2,4]oxadiazol-5(4H)-one]"
64,57,99,34,"CCOc1cc(-c2cc(NCCc3ccc(Br)cc3)nc(C)n2)sc1-c1noc(=O)[nH]1 [Example 157, 3-(5-{6-[2-(4-Bromo-phenyl)-ethylamino]-2-methyl-pyrimidin-4-yl}-3-ethoxy-thiophen-2-yl)-[1,2,4]oxadiazol-5(4H)-one]"
20,2,46,5,"CC(C)Oc1cc(-c2cc(NCCc3c(F)cc(Br)cc3F)ncn2)sc1-c1noc(=O)[nH]1 [Example 162, 3-(5-{6-[2-(4-Bromo-2,6-difluoro-phenyl)-ethylamino]-pyrimidin-4-yl}-3-isopropoxy-thiophen-2-yl)-[1,2,4]oxadiazol-5(4H)-one]"
